“And” between values parts separate entries of the source, which are not always exact repeats. Identical values can stand only once. Like-named read-outs stand apart in the source and are kept apart here.
Key:
[1] = test system: Factor VII; assay: Factor VII activity assay, in vivo liver delivery of FVII siRNA LNP; parameters: species or system mouse; conditions: ~48 h
Method: Female CD-1 mice are received from Charles River Labs and maintained on standard lab chow and water ad libitum. The animals weigh approximately 25 grams at time of dosing. Formulated siRNA is administered as a single dose at various dose levels intravenously via the lateral tail vein calculated on a (mg siRNAs/kg) basis according to individual animal weights (10 ml/kg injection volume).
Formulated siRNAs are made up of double stranded siRNA sequences specific to a target mRNA sequence, and are in the form of lipid nucleotid particles (LNPs) containing cationic lipids, stealth lipids and neutral lipids, as provided in the Examples below. The siRNA construct for use in targeting the liver is specific to Factor VII. […] FVII siRNA duplex sequence
Formulated Factor VII siRNA is administered as a single dose at various dose levels intravenously via the lateral tail vein calculated on a mg siRNAs/kg basis according to individual animal weights (10 ml/kg injection volume). Approximately 48 h after injection, the mice are euthanized by CO2 inhalation followed by exsanguinations through the vena cava. […] In some cases, small pieces (˜50 mg) of liver are collected and snap frozen in liquid nitrogen for follow up mRNA quantitation.
An assay standard curve is prepared using pooled plasma aliquots from the vehicle control animals.

[2] = Particle size and PDI by dynamic light scattering (Malvern Zetasizer); assay type: physicochemical
Method: Unless indicated otherwise, all sizes referred to herein are the average sizes (diameters) of the fully formed nanoparticle, as measured by dynamic light scattering on a Malvern Zetasizer. The nanoparticle sample is diluted in phosphate buffered saline (PBS) so that the count rate is approximately 200-400 kcts. The data is presented as a weighted average of the intensity measure.
The acronym PDI stands for polydispersity index. Unless indicated otherwise, all PDIs referred to herein are the PDI of the fully formed nanoparticle, as measured by dynamic light scattering on a Malvern Zetasizer. The nanoparticle sample is diluted in phosphate buffered saline (PBS) so that the count rate is approximately 200-400 kcts.

[3] = pKa of the lipid by TNS fluorescence; assay type: physicochemical
Method: Unless explicitly indicated otherwise, all pKas referred to herein are measured in water at standard temperature and pressure. Also, unless otherwise indicated, all references to pKa are references to pKa measured using the following technique.
2 mM solution of lipid in ethanol are prepared by weighing the lipid and then dissolving in ethanol.
This is done with all eight buffers.
Priority: Column priority • Carriage Speed: Normal • Auto read: Off
The normalized fluorescence intensity vs. pH chart is then plotted in the Microsoft Excel software. The eight points are connected with a smooth line.
The pKa determined using this method is precise to about 0.2 pKa units.

[4] = dose 1 mg/kg siRNA i.v., lipid/no neutral lipid/CHOL/GM-020 NOF 60/0/36/4, N/P 3
[5] = lipid/no neutral lipid/CHOL/GM-020 NOF 60/0/36/4, N/P 3
[6] = dose 3 mg/kg siRNA i.v., lipid/DSPC/CHOL/AVANTI 880150P 50/28/18/4, N/P 3.43
[7] = dose 3 mg/kg siRNA i.v., lipid/no neutral lipid/CHOL/AVANTI 880150P 50/0/46/4, N/P 3.43
[8] = lipid/DSPC/CHOL/AVANTI 880150P 50/28/18/4, N/P 3.43
[9] = lipid/no neutral lipid/CHOL/AVANTI 880150P 50/0/46/4, N/P 3.43

| SMILES | FVII inhib % [1, 4] [%] | Final size (nm) [2, 5] [nm] | PDI [2, 5] | pKa ([3]; pKa) | FVII inhib % [1, 6] [%] | FVII inhib % [1, 7] [%] | Final size (nm) [2, 8] [nm] | PDI [2, 8] | Final size (nm) [2, 9] | PDI [2, 9] | FVII inhib % ([1]; dose 1 mg/kg siRNA i.v., lipid/no neutral lipid/CHOL/AVANTI 880150P 50/0/46/4, N/P 3.43) [%] | pKa [3] |
| --- | --- | --- | --- | --- | --- | --- | --- | --- | --- | --- | --- | --- |
| CCCCC/C=C\C/C=C\CCCCCCCCOCC(CN1CCCCC1)OCCOCCOC(=O)CCC(=O)O[C@H]1CC[C@@]2(C)C(=CCC3C2CC[C@@]2(C)C3CC[C@@H]2[C@H](C)CCCC(C)C)C1 (stereo partly shown) [E0060] | 0.0 | 90.25 | 0.171 | 6.43 | – | – | – | – | – | – | – | – |
| CCCCCCCC/C=C\CCCCCCCCOCC(CN1CCC(OC)C1)OCCO[C@H]1CC[C@@]2(C)C(=CC[C@H]3[C@@H]4CC[C@H]([C@H](C)CCCC(C)C)[C@@]4(C)CC[C@@H]32)C1 (stereo partly shown) [E0062] | 64.8 | 145.1 | 0.125 | 6.45 | – | – | – | – | – | – | – | – |
| CCCCC/C=C\C/C=C\CCCCCCCCOCC(CN1CCCC1C)OCCOCCOCCOCCO[C@H]1CC[C@@]2(C)C(=CC[C@H]3[C@@H]4CC[C@H]([C@H](C)CCCC(C)C)[C@@]4(C)CC[C@@H]32)C1 (stereo partly shown) [E0084] | 60.7 | 112.1 | 0.1 | 7.27 | – | – | – | – | – | – | – | – |
| CCCCC/C=C\C/C=C\CCCCCCCCCCOCC(CN1CCCCC1)OCCOCCO[C@H]1CC[C@@]2(C)C(=CC[C@H]3[C@@H]4CC[C@H]([C@H](C)CCCC(C)C)[C@@]4(C)CC[C@@H]32)C1 (stereo partly shown) [E0071] | 30.8 | 188.2 | 0.151 | 6.47 | – | – | – | – | – | – | – | – |
| CCCCC/C=C\C/C=C\CCCCCCCCOCC(CN1CCC(OC)C1)OCCCCO[C@H]1CC[C@@]2(C)C(=CCC3C2CC[C@@]2(C)C3CC[C@@H]2[C@H](C)CCCC(C)C)C1 (stereo partly shown) [E0035] | – | – | – | 5.93 | 22 | 66.8 | 103 | 0.2 | 79 nm | 0.21 | – | – |
| CCCCCCCC/C=C\CCCCCCCCOCC(CN1CCCCC1)OCCCOCCCO[C@H]1CC[C@@]2(C)C(=CC[C@H]3[C@@H]4CC[C@H]([C@H](C)CCCC(C)C)[C@@]4(C)CC[C@@H]32)C1 (stereo partly shown) [E0078] | 51.9 | 122.6 | 0.098 | 5.72 | – | – | – | – | – | – | – | – |
| CCCCC/C=C\C/C=C\CCCCCCCCOCC(CN1CCCC1C)OCCOCCO[C@H]1CC[C@@]2(C)C(=CC[C@H]3[C@@H]4CC[C@H]([C@H](C)CCCC(C)C)[C@@]4(C)CC[C@@H]32)C1 (stereo partly shown) [E0083] | 55.6 | 113.4 | 0.199 | 6.79 | – | – | – | – | – | – | – | – |
| CCCCC/C=C\C/C=C\CCCCCCCCOCC(CN1CCC(N2CCCCC2)CC1)OCCOCCO[C@H]1CC[C@@]2(C)C(=CCC3C2CC[C@@]2(C)C3CC[C@@H]2[C@H](C)CCCC(C)C)C1 (stereo partly shown) [E0004] | – | – | – | 7.48 | 23.4 | 41 | 142 | 0.113 | 186 nm | 0.201 | – | – |
| CCCCC/C=C\C/C=C\CCCCCCCCCCOCC(CN1CCCCC1)OCCO[C@H]1CC[C@@]2(C)C(=CC[C@H]3[C@@H]4CC[C@H]([C@H](C)CCCC(C)C)[C@@]4(C)CC[C@@H]32)C1 (stereo partly shown) [E0069] | 29 | 113.4 | 0.199 | 6.07 | – | – | – | – | – | – | – | – |
| CCCCC/C=C\C/C=C\CCCCCCCCOCC(CN1CC=CCC1)OCCOCCO[C@H]1CC[C@@]2(C)C(=CCC3C2CC[C@@]2(C)C3CC[C@@H]2[C@H](C)CCCC(C)C)C1 (stereo partly shown) [E0018] | – | – | – | 5.9 | 91.8 | 98 | 119 | 0.095 | 103 nm and 140 nm | 0.113 and 0.13 | 40.5 | – |
| CCCCC/C=C\C/C=C\CCCCCCCCOCC(CN1CCCCC1)OC(=O)CCC(=O)O[C@H]1CC[C@@]2(C)C(=CCC3C2CC[C@@]2(C)C3CC[C@@H]2[C@H](C)CCCC(C)C)C1 (stereo partly shown) [E0036] | – | – | – | 5.74 | −47 | −23.1 | 122 | 0.12 | 76 nm | 0.24 | – | – |
| CCCCC/C=C\C/C=C\CCCCCCCCOCOCC(CN1CCCCC1)OCCOCCO[C@H]1CC[C@@]2(C)C(=CC[C@H]3[C@@H]4CC[C@H]([C@H](C)CCCC(C)C)[C@@]4(C)CC[C@@H]32)C1 (stereo partly shown) [E0115] | 68.8 | 162.5 | 0.098 | 6.41 | – | – | – | – | – | – | – | – |
| CCCCC/C=C\C/C=C\CCCCCCCCOCC(CN1CCC2(CC1)OCCO2)OCCOCCO[C@H]1CC[C@@]2(C)C(=CCC3C2CC[C@@]2(C)C3CC[C@@H]2[C@H](C)CCCC(C)C)C1 (stereo partly shown) [E0016] | – | – | – | 5.85 | 88.8 | 59.9 | 97 | 0.175 | 178 nm | 0.206 | – | – |
| CCCCC/C=C\C/C=C\CCCCCCCCOCC(CN1CCSCC1)OCCOCCO[C@H]1CC[C@@]2(C)C(=CCC3C2CC[C@@]2(C)C3CC[C@@H]2[C@H](C)CCCC(C)C)C1 (stereo partly shown) [E0031] | – | – | – | 4.8 | 36.7 | 27.1 | 108 | 0.23 | 65 nm | 0.11 | – | – |
| CCCCC/C=C\C/C=C\CCCCCCCCOCC(CN1CCC2(CC1)OCCCO2)OCCOCCO[C@H]1CC[C@@]2(C)C(=CCC3C2CC[C@@]2(C)C3CC[C@@H]2[C@H](C)CCCC(C)C)C1 (stereo partly shown) [E0007] | – | – | – | 5.84 | 72.2 | 76.8 | 92 | 0.178 | 138 nm | 0.148 | – | – |
| CCCCC/C=C\C/C=C\CCCCCCCCOCC(CN(C)C)OCCOCCO[C@H]1CC[C@@]2(C)C(=CC[C@H]3[C@@H]4CC[C@H]([C@H](C)CCCC(C)C)[C@@]4(C)CC[C@@H]32)C1 (stereo partly shown) [E0172, reference compound] | – | – | – | 6.7 | 21 | 40.8 | 170 | 0.181 | 129 nm | 0.184 | – | 8.5 |
| CCCCC/C=C\C/C=C\CCCCCCCCOCC(CN1CCCCC1)OCCOCCOCCOCCO[C@H]1CC[C@@]2(C)C(=CC[C@H]3[C@@H]4CC[C@H]([C@H](C)CCCC(C)C)[C@@]4(C)CC[C@@H]32)C1 (stereo partly shown) [E0079] | 33.5 | 106.2 | 0.052 | 6.79 | – | – | – | – | – | – | – | – |

Source: patent US9301923B2, “Lipids, lipid compositions, and methods of using them” (NOVARTIS AG, priority 2009, dated 2016)
